Literature values as cited in patent publication US20090182041A1, “CONTROL OF CANCER WITH ANNONACEOUS EXTRACTS” (NATURE'S SUNSHINE PRODUCTS, INC., priority 2002, published 2009).

Assays:
[1] = system: NADH oxidase found in the plasma membranes of tumor cells; conditions: substantially purified form
[2] = system: mitochondrial complex I (NADH: ubiquinone oxidoreductase); conditions: substantially purified form

Row | Molecule | inhibition of NADH oxidase in the plasma membranes of tumor cells [1] | inhibition of complex I in the electron transport system in mitochondria [2]
1 | CCCCCCCCCC[C@@H](O)[C@H]1CC[C@@H]([C@H]2CC[C@H]([C@H](O)CCCCCCCCCC[C@@H](O)CC3=C[C@H](C)OC3=O)O2)O1 [trilobacin] | inhibit | most powerful inhibitors known
2 | asimicin | inhibit | most powerful inhibitors known
3 | bullatacin | inhibit | most powerful inhibitors known
